Structures can show the parent of a compound that is named as a salt.

Holding throughout (test): PDSP primary radioligand binding assay
One experiment addresses T1, Dopamine receptor D4 (Homo sapiens, UniProt P21917).
T1 construct: expressed in transfected cells
T1 sequence (P21917 1-419): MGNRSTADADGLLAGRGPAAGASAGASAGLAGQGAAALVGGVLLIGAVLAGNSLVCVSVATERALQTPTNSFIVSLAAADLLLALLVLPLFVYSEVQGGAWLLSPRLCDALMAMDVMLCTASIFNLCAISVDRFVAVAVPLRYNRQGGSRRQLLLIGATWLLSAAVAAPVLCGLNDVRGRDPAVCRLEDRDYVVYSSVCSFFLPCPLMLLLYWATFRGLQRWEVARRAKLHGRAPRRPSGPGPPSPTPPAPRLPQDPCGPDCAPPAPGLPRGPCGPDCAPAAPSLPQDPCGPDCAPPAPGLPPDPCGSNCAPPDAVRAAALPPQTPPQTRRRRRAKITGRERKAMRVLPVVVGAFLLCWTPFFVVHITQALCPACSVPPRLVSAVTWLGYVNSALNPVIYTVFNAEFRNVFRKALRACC
To be noted: compound 10 μM, n=4, read-out: mean percentage inhibition, Dopamine receptor D4. The procedure: (§1) Primary and secondary radioligand binding assays are performed. In general, the primary assay is run at very high ligand (compound) concentration as a broad screen to determine whether a compound binds to a particular receptor. If greater than 50% inhibition at 10 μM (high concentration of compound) at a particular receptor is determined, a secondary assay is performed on that receptor. Data from the secondary assay is the binding affinity (Ki value).
(§2) A solution of the compound to be tested is prepared as a 1 mg/ml stock in Standard Binding Buffer or dimethyl sulfoxide (DMSO) according to its solubility. A similar stock of a reference compound (positive control) is also prepared.
(§3) Radioligand (radioligands are presented in Table 39) is diluted to five times the assay concentration (assay concentrations are presented in Table 39) in Standard Binding Buffer. Typically, the assay concentration of radioligand is a value between one half the KD and the KD of a particular radioligand at its target. Aliquots (50 μL) of radioligand are dispensed into the wells of a 96-well plate (see FIG. 11) containing 100 μL of Standard Binding Buffer (Table 40). Then, duplicate 50 μL aliquots of the test and reference compound dilutions are added (see FIG. 11). According to FIG. 11, increasing concentrations (from left to right) of reference or test compound (diluted in buffer) are added (50 μL aliquots, in duplicate) from 5× stock solutions to wells containing 50 μL of 5× radioligand (fixed concentration, prepared in buffer) and 100 μL of buffer. Finally, 50 μL of receptor-containing membrane homogenate (5× suspension in buffer) are added to achieve a final assay volume of 250 μL. Final concentrations of reference or test compound are listed above the columns in FIG. 11.
(§4) Finally, crude membrane fractions of cells expressing recombinant target (prepared from 10 cm plates by harvesting phosphate buffered saline (PBS)-rinsed monolayers, resuspending and lysing in chilled, hypotonic 50 mM Tris-HCl, pH 7.4, centrifuging at 20,000×g, decanting the supernatant and storing at −80° C.; typically, one 10 cm plate provides sufficient material for 24 wells) are resuspended in 3 mL of chilled Standard Binding Buffer and homogenized by several passages through a 26 gauge needle, and then 50 μL are dispensed into each well.
(§5) The 250 μL reactions are incubated at room temperature and shielded from light (to prevent photolysis of light-sensitive ligands) for 1.5 hours, then harvested by rapid filtration onto Whatman GF/B glass fiber filters pre-soaked with 0.3% polyethyleneimine using a 96-well Brandel harvester. Four rapid 500 μL washes are performed with chilled Standard Binding Buffer to reduce non-specific binding. Filters are placed in 6 mL scintillation tubes and allowed to dry overnight. The next day, 4 mL of EcoScint scintillation cocktail (National Diagnostics) are added to each tube. The tubes are capped, labeled, and counted by liquid scintillation counting. For higher throughput assays, bound radioactivity is harvested onto 0.3% polyethyleneimine-treated, 96-well filter mats using a 96-well Filtermate harvester. The filter mats are dried, then scintillant is melted onto the filters, and the radioactivity retained on the filters is counted in a Microbeta scintillation counter.
(§6) Raw data (dpm) representing total radioligand binding (i.e., specific+non-specific binding) are plotted as a function of the logarithm of the molar concentration of the competitor (i.e., test or reference compound). […]

The target of the next experiment is T2, Dopamine receptor D2 (Homo sapiens, UniProt P14416).
T2 construct: expressed in transfected cells
T2 sequence (P14416 whole entry): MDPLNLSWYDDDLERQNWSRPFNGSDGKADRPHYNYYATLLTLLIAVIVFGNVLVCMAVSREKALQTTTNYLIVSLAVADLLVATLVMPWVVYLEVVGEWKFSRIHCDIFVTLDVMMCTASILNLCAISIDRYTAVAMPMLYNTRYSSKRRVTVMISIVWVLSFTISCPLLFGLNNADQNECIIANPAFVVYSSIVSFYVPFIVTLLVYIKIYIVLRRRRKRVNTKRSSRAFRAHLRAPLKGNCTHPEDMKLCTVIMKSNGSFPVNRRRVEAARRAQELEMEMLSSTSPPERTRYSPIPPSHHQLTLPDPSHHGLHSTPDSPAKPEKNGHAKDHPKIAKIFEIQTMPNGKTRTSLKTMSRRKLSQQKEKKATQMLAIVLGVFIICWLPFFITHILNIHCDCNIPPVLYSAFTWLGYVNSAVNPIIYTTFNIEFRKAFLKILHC
To be noted: compound 10 μM; for inhibition at 10 µM: n=4, read-out: mean percentage inhibition, Dopamine receptor D2. The procedure:
as §1, §2, §3, §4, §5, §6

The target in the next experiment is T3, Histamine receptor H2 (Homo sapiens, UniProt P25021).
T3 construct: expressed in transfected cells
T3 sequence (P25021 whole entry): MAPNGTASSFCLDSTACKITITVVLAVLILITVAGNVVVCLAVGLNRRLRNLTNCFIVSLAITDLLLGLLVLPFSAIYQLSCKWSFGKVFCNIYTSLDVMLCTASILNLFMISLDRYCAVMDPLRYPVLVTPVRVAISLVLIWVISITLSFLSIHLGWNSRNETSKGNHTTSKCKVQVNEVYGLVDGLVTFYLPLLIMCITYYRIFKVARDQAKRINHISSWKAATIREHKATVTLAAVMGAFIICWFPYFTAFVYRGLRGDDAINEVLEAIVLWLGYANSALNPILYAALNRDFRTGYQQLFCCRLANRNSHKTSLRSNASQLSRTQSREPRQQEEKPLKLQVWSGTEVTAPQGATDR
The note with it: compound 10 μM; for mean percentage inhibition, Histamine receptor H2: n=4, hydrochloride, 10 µM. The procedure:
as §1, §2, §3, §4, §5, §6

The next experiment deals with T4, Dopamine receptor D3 (Rattus norvegicus, UniProt P19020).
T4 construct: expressed in transfected cells
T4 sequence (P19020 whole entry): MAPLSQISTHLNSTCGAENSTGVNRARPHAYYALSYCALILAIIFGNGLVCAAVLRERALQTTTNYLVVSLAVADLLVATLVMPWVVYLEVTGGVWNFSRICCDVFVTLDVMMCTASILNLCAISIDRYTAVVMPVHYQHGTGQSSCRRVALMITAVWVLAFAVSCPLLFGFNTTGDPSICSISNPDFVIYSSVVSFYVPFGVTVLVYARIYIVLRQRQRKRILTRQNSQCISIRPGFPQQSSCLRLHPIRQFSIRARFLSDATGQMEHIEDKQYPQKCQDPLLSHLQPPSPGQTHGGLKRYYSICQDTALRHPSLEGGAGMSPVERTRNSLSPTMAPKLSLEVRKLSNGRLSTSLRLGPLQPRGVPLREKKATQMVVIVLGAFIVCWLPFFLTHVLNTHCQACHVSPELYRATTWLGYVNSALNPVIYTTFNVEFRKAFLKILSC
To be noted: compound 10 μM; for inhibition at 10 µM: n=4, read-out: mean percentage inhibition, Dopamine receptor D3. The procedure:
as §1, §2, §3, §4, §5, §6

Regarding `CCCOc1cc2c(cn1)[nH]c1ccncc12` [Compound 2, 8-Propoxypyridino[4′,3′-5,4]pyrrolo[3,2-c]pyridine hydrochloride], the inhibition at 10 µM at Dopamine receptor D4 was more than 50%; on Dopamine receptor D2, more than 50%; on Histamine receptor H2 (n=4, read-out: mean percentage inhibition, Histamine receptor H2), less than 50%; at Dopamine receptor D3, less than 50%. Further, on Histamine receptor H2, the “mean percentage inhibition, Histamine receptor H2” value stood at 31.4%. Further, on Dopamine receptor D3 (n=4, hydrochloride, 10 µM), the “mean percentage inhibition, Dopamine receptor D3” value is 31.8%.

Turning to `CCCOc1cc2c(cn1)[nH]c1cnccc12` [Compound 4, 3-Propoxy pyridino[4′,3′-4,5]pyrrolo[2,3-c]pyridine hydrochloride], the inhibition at 10 µM at Dopamine receptor D4 was -18.1%; at Dopamine receptor D2 it was more than 50%; on Dopamine receptor D3, 24.1%. Also, the “mean percentage inhibition, Dopamine receptor D2” value on Dopamine receptor D2 (n=4, hydrochloride, 10 µM) stood at 50%. For the same compound, the “mean percentage inhibition, Histamine receptor H2” value on Histamine receptor H2 is given as 26.8%.

(Values after patent US8268854B2, “Aza-beta-carbolines and methods of using same” (The UWM Research Foundation, Inc., priority 2008, dated 2012).)
